The NIST ThermoML archive (doi:10.1016/j.jct.2005.02.004)

Assay: mn = molality of the nth substance listed, in mol/kg
Settings: Liquid, Vibrating tube method

[Br-].[Br-].[Zn+2] [zinc bromide] + CO
Settings | mass density [kg/m3]
298.27 K, 175 kPa, m1 = 0.7158 | 902.32
298.27 K, 206 kPa, m1 = 0.3785 | 853.39
298.27 K, 206 kPa, m1 = 1.951 | 1072.66
298.27 K, 4983 kPa, m1 = 1.951 | 1077.46
298.27 K, 4990 kPa, m1 = 0.3785 | 858.17
298.27 K, 4998 kPa, m1 = 0.7158 | 907.05
298.27 K, 9995 kPa, m1 = 1.951 | 1082.31
298.27 K, 10009 kPa, m1 = 0.7158 | 911.75
298.27 K, 10013 kPa, m1 = 0.3785 | 862.94
298.27 K, 14985 kPa, m1 = 0.7158 | 916.21
298.27 K, 14995 kPa, m1 = 0.3785 | 867.44
298.27 K, 15001 kPa, m1 = 1.951 | 1087.02
298.27 K, 19983 kPa, m1 = 1.951 | 1091.45
298.27 K, 19984 kPa, m1 = 0.3785 | 871.75
298.27 K, 19989 kPa, m1 = 0.7158 | 920.51
298.27 K, 24990 kPa, m1 = 1.951 | 1095.81
298.27 K, 25018 kPa, m1 = 0.3785 | 875.78
298.27 K, 25019 kPa, m1 = 0.7158 | 924.66
298.27 K, 29988 kPa, m1 = 0.3785 | 879.71
298.27 K, 29996 kPa, m1 = 1.951 | 1100.02
298.27 K, 34982 kPa, m1 = 0.3785 | 883.51
298.27 K, 34985 kPa, m1 = 0.7158 | 932.44
298.27 K, 34998 kPa, m1 = 1.951 | 1104.11
298.27 K, 35000 kPa, m1 = 0.7158 | 932.43
298.27 K, 39992 kPa, m1 = 0.7158 | 936.16
298.27 K, 40008 kPa, m1 = 0.3785 | 887.18
298.27 K, 40010 kPa, m1 = 1.951 | 1108.09
298.28 K, 200 kPa, m1 = 0.05772 | 797.74
298.28 K, 4999 kPa, m1 = 0.05772 | 802.42
298.28 K, 9984 kPa, m1 = 0.05772 | 807.04
298.28 K, 14988 kPa, m1 = 0.05772 | 811.39
298.28 K, 19994 kPa, m1 = 0.05772 | 815.58
298.28 K, 24988 kPa, m1 = 0.05772 | 819.58
298.28 K, 29998 kPa, m1 = 0.05772 | 823.42
298.28 K, 34981 kPa, m1 = 0.05772 | 827.09
298.28 K, 40008 kPa, m1 = 0.05772 | 830.66
323.22 K, 212 kPa, m1 = 0.7158 | 876.52
323.22 K, 228 kPa, m1 = 0.3785 | 828.32
323.22 K, 230 kPa, m1 = 0.05772 | 773.97
323.22 K, 245 kPa, m1 = 1.951 | 1042.34
323.22 K, 4983 kPa, m1 = 0.3785 | 833.75
323.22 K, 4994 kPa, m1 = 0.05772 | 779.33
323.22 K, 5004 kPa, m1 = 1.951 | 1047.72
323.22 K, 5010 kPa, m1 = 0.7158 | 881.93
323.22 K, 9982 kPa, m1 = 1.951 | 1053.09
323.22 K, 9993 kPa, m1 = 0.3785 | 839.12
323.22 K, 9999 kPa, m1 = 0.7158 | 887.26
323.22 K, 10015 kPa, m1 = 0.05772 | 784.65
323.22 K, 14987 kPa, m1 = 1.951 | 1058.26
323.22 K, 14997 kPa, m1 = 0.05772 | 789.6
323.22 K, 14997 kPa, m1 = 0.3785 | 844.21
323.22 K, 15018 kPa, m1 = 0.7158 | 892.34
323.22 K, 19990 kPa, m1 = 0.3785 | 849.04
323.22 K, 19994 kPa, m1 = 0.7158 | 897.14
323.22 K, 20007 kPa, m1 = 0.05772 | 794.31
323.22 K, 20009 kPa, m1 = 1.951 | 1063.24
323.22 K, 24981 kPa, m1 = 0.7158 | 901.73
323.22 K, 24985 kPa, m1 = 0.05772 | 798.77
323.22 K, 24994 kPa, m1 = 0.3785 | 853.6
323.22 K, 24998 kPa, m1 = 1.951 | 1068
323.22 K, 29987 kPa, m1 = 0.7158 | 906.15
323.22 K, 29997 kPa, m1 = 1.951 | 1072.61
323.22 K, 30012 kPa, m1 = 0.05772 | 803.09
323.22 K, 30016 kPa, m1 = 0.3785 | 857.92
323.22 K, 34994 kPa, m1 = 0.7158 | 910.38
323.22 K, 34996 kPa, m1 = 0.05772 | 807.14
323.22 K, 34997 kPa, m1 = 0.3785 | 862.1
323.22 K, 35003 kPa, m1 = 1.951 | 1077.08
323.22 K, 39988 kPa, m1 = 0.3785 | 866.11
323.22 K, 39997 kPa, m1 = 0.7158 | 914.47
323.22 K, 39998 kPa, m1 = 0.05772 | 811.05
323.22 K, 40001 kPa, m1 = 1.951 | 1081.4
348.23 K, 311 kPa, m1 = 0.3785 | 802.57
348.23 K, 316 kPa, m1 = 0.7158 | 850.07
348.23 K, 4989 kPa, m1 = 0.7158 | 856.15
348.23 K, 5006 kPa, m1 = 0.3785 | 808.74
348.23 K, 9999 kPa, m1 = 0.3785 | 814.86
348.23 K, 10009 kPa, m1 = 0.7158 | 862.27
348.23 K, 14998 kPa, m1 = 0.7158 | 868
348.23 K, 15007 kPa, m1 = 0.3785 | 820.6
348.23 K, 19987 kPa, m1 = 0.3785 | 825.97
348.23 K, 19998 kPa, m1 = 0.7158 | 873.4
348.23 K, 24998 kPa, m1 = 0.3785 | 831.08
348.23 K, 25006 kPa, m1 = 0.7158 | 878.54
348.23 K, 29987 kPa, m1 = 0.7158 | 883.42
348.23 K, 29988 kPa, m1 = 0.3785 | 835.92
348.23 K, 34986 kPa, m1 = 0.7158 | 888.06
348.23 K, 35004 kPa, m1 = 0.3785 | 840.55
348.23 K, 40002 kPa, m1 = 0.7158 | 892.55
348.23 K, 40007 kPa, m1 = 0.3785 | 844.98
